ChEMBL document CHEMBL2073871, “Human P-glycoprotein transports cortisol, aldosterone, and dexamethasone, but not progesterone” (J Biol Chem, 1992)

How the values were obtained:
[1] = target: T1, ATP-dependent translocase ABCB1 (Homo sapiens, UniProt P08183); test: TP_TRANSPORTER: transepithelial transport (basal to apical) in MDR1-expressing LLC-PK1 cells; type: functional, cell-based; conditions: pig
[2] = target: T1, ATP-dependent translocase ABCB1; test: TP_TRANSPORTER: inhibition of Cortisol transepithelial transport (basal to apical) (Cortisol: 0.011? uM, Progesterone: 50 uM) in MDR1-expressing LLC-PK1 cells; type: functional, cell-based; conditions: pig, llc-pk1, 50 µM

T1 sequence (P08183 whole entry): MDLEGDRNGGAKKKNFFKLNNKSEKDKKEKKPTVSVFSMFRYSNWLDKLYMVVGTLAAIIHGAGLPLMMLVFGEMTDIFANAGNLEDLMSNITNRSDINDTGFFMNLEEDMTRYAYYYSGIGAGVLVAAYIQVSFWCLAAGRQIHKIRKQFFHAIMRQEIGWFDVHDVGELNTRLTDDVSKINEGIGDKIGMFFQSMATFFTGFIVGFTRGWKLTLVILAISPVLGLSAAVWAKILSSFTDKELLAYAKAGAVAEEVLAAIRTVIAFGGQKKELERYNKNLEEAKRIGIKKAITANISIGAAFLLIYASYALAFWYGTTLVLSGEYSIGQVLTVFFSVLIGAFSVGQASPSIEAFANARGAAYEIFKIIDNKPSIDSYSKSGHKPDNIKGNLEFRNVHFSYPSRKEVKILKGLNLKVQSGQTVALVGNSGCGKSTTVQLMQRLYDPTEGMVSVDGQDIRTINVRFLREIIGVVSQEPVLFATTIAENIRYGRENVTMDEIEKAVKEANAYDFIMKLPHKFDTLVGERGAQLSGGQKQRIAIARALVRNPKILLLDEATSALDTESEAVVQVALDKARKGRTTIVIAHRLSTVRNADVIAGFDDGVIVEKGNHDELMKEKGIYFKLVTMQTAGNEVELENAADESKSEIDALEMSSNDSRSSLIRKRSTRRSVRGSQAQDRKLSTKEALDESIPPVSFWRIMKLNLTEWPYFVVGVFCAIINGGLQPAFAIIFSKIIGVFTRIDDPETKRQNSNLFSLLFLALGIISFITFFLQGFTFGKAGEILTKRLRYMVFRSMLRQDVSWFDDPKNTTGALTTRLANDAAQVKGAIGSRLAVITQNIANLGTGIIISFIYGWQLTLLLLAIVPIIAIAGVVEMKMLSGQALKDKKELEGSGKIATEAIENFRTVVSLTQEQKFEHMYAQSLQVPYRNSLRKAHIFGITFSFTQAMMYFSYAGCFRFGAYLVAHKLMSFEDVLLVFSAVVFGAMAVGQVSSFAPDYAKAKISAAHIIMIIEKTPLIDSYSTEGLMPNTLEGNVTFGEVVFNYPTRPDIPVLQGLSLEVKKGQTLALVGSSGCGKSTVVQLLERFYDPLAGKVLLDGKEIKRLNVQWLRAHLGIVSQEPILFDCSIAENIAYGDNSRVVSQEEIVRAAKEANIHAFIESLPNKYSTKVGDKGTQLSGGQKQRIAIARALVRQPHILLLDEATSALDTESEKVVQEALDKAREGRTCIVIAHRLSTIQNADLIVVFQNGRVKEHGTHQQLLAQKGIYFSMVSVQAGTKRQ

| Activity [1] | Structure (SMILES) | Activity [2] |
| --- | --- | --- |
| substrate [+] | C[C@]12CCC(=O)C=C1CC[C@@H]1[C@@H]2[C@@H](O)C[C@]2(C=O)[C@@H](C(=O)CO)CC[C@@H]12 [ALDOSTERONE] |  |
| substrate [+] | C[C@]12CCC(=O)C=C1CC[C@@H]1[C@@H]2[C@@H](O)C[C@@]2(C)[C@H]1CC[C@]2(O)C(=O)CO [HYDROCORTISONE] |  |

| Structure (SMILES) | Activity [1] | Activity [2] |
| --- | --- | --- |
| CC(=O)[C@H]1CC[C@H]2[C@@H]3CCC4=CC(=O)CC[C@]4(C)[C@H]3CC[C@]12C [PROGESTERONE] | is not a substrate [-] | inhibitor [+] |
